For one experiment, the target named is T1, IRTK-Grb10 interaction (Homo sapiens, UniProt P06213).
T1 construct: a construct bearing only the tyrosine kinase domain of the luciferase-fused receptor and the Grb10 protein fused to YFP; expressed in transfected cells; host or cells: HEK 293T
The experiment in a line: Co-immunoprecipitation of IRTK48-RLuc with Grb10-YFP in co-transfected HEK 293T cells. Format: cell-based. Particulars: same experiment as with Grb14. How it is done: In order to test the specificity of the compound of Formula (Ia) on this IRTK-Grb14 interaction, the same experiment was conducted with HEK 293T cells co-transfected with a construct bearing only the tyrosine kinase domain of the luciferase-fused receptor and the Grb10 protein fused to YFP. Indeed, the Grb10 protein also binds to the phosphorylated insulin receptor and inhibits its catalytic activity.

The subject of another experiment is PI3K/Akt pathway. The experiment in a line: Luc-Akt-PH/YFP-membrane BRET in MCF7 line. The experiment is classed as cell-based. Particulars: 50 μM, MCF7 cells. How it is done: FIG. 5A and FIG. 5B, the effect of the compound of Formula (Ia) according to the invention (black bars) on the activation of the PI3K/Akt pathway measured by the Luc-Akt-PH/YFP-membrane BRET technique compared to the DMSO (Dimethylsulfoxide) control (white bars) as measured on (FIG. 5A) HEK293T cells pre-incubated or not for 1 h with tyrosine kinase inhibitor AG1024 at a concentration of 25 μM final or on (FIG. 5B) an MCF7 line doubly and stably transfected with the vectors encoding Luc-Akt-PH and YFP-membrane. The results, expressed as BRET delta, are the average of 3 to 8 independent experiments (**p<0.01, ***p<0.001, by Newman-Keuls multiple comparison test).
To measure the activity of the PI3-kinase pathway by the BRET technique, HEK293T cells are transfected with plasmids allowing, on the one hand, the expression of the PH (Pleckstrin Homology) domain of the Akt protein which has been fused to the luciferase and, on the other hand, a membrane-addressing sequence which has been fused to the YFP protein. When the PH domain of Akt is recruited to the membrane by the PIP3s, an energy transfer between the luciferase that is coupled to the PH domain of Akt and the membrane YFP protein takes place. The measured BRET signal is a control of the production of PIP3s at the membrane and is a reflection of the activation of the PI-3-kinase/Akt pathway in real time on cells. […]

For experiment [1], the system named is SREBP-1c, ACC, FAS and SCD1 expression. Put plainly: Expression of lipogenesis genes in hepatocytes in primary culture (RT-qPCR). The experiment is classed as cell-based, mouse. Particulars: condition G25i (25 mM glucose, 10 nM insulin), 24 h. On the procedure:
FIG. 7, the effect of the compound of Formula (Ia) according to the invention (black bars) on the expression of insulin target genes, SREBP-1c, ACC, FAS, and SCD1 (FIGS. 7A-D, respectively) involved in the lipogenesis pathway. Hepatocytes in primary culture are cultured in the presence of 5 mM glucose (G5) or 25 mM glucose (G25) and 10 nM insulin for 24 h. The relative quantification of mRNAs is performed by RT-qPCR. The values are related to the quantification of the 18S gene in the same sample in order to normalize the results. The results are the average of 3 to 5 independent experiments (*p<0.05 by Anova followed by a Newman-Keuls test).
Briefly, mouse hepatocytes in primary culture are cultured in the presence of 5 mM glucose (G5) or 25 mM glucose (G25), and 10 nM insulin for 24 h. The relative quantification of mRNAs is performed by RT-qPCR and the values are related to the quantification of the 18S gene from the same sample in order to normalize the results.

SMILES strings stand for the structures.

We go through one compound from patent US11020378B2, “Compounds, compositions and methods for treating insulin resistance” (UNIVERSITE PARIS DESCARTES, priority 2017, dated 2021).

T1 sequence (P06213 1023-1298 limits assumed): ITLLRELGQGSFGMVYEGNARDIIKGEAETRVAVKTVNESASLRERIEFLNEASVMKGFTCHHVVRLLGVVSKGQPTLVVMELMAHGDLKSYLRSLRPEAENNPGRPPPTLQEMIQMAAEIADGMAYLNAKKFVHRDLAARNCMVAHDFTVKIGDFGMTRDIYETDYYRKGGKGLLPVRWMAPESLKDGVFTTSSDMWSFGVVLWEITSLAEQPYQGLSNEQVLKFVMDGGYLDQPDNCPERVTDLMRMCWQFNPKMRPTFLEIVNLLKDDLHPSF

As for `Cc1ccc(/C=C/C(=O)Nc2ccc(S(=O)(=O)Nc3onc(C)c3C)cc2)o1` [Ia], on IRTK-Grb10 interaction, the “amounts of tyrosine kinase domain of the insulin receptor co-immunoprecipitated with the Grb10 protein” value is reported as “does not change”. Further, in the experiment on PI3K/Akt pathway (absence of insulin), the “effect on the production of PIP3s at the membrane” value was “no effect”. Besides, the “effect on the production of PIP3s at the membrane” value with PI3K/Akt pathway (presence of 100 nM insulin) is “no effect”. In experiment [1], the “increase of the effect of insulin on the expression of ACC” value is recorded as “about 60%”, the “increase of the effect of insulin on the expression of FAS” value is reported as “about 60%”, the “increase of the effect of insulin on the expression of SCD1” value is “about 60%” and the “increase of the effect of insulin on the expression of SREBP-1c” value is recorded as “about 60%”.
